Data from US9320276B2, “N-hetarylmethyl pyrazolylcarboxamides” (BAYER INTELLECTUAL PROPERTY GMBH, priority 2010, dated 2016).

Columns and labels:
[1] = tested on: Fusarium nivale (var. majus); assay: in vivo curative test on Fusarium nivale (wheat); details: 500 ppm of active ingredient, evaluated 5 days after inoculation
Protocol: Solvent: 49 parts by weight of N,N-dimethylacetamide Emulsifier: 1 part by weight of alkylaryl polyglycol ether To produce a suitable preparation of active compound, 1 part by weight of active compound or active compound combination is mixed with the stated amounts of solvent and emulsifier, and the concentrate is diluted with water to the desired concentration. To test for curative activity, young plants are slightly injured by using a sandblast and afterwards they are sprayed with a conidia suspension of Fusarium nivale (var. majus) and placed for 24 hours in a greenhouse under a translucent incubation cabinet at a temperature of approximately 10° C. and a relative atmospheric humidity of approximately 100% and are subsequently sprayed with the preparation of active compound at the stated rate of application. After the spray coating has been dried, the plants remain in the greenhouse under translucent incubation cloches at a temperature of approximately 10° C. and a relative atmospheric humidity of approximately 100%. The test is evaluated 5 days after the inoculation. 0% means an efficacy which corresponds to that of the untreated control, while an efficacy of 100% means that no disease is observed.

[2] = tested on: Botrytis cinerea; assay: in vivo protective test on Botrytis cinerea (beans); details: 100 ppm of active ingredient, preventive, lesion size 2 days after inoculation
Protocol: Solvent: 24.5 parts by weight of acetone • 24.5 parts by weight of N,N-dimethylacetamide Emulsifier: 1 part by weight of alkylaryl polyglycol ether To produce a suitable preparation of active compound, 1 part by weight of active compound is mixed with the stated amounts of solvent and emulsifier, and the concentrate is diluted with water to the desired concentration. To test for preventive activity, young plants are sprayed with the preparation of active compound. After the spray coating has dried on, 2 small pieces of agar covered with growth of Botrytis cinerea are placed on each leaf. The inoculated plants are placed in a darkened chamber at 20° C. and a relative atmospheric humidity of 100%. 2 days after the inoculation, the size of the lesions on the leaves is evaluated. 0% means an efficacy which corresponds to that of the untreated control, while an efficacy of 100% means that no disease is observed.

[3] = tested on: Puccinia triticina; assay: in vivo protective test on Puccinia triticina (wheat); details: 500 ppm of active ingredient, preventive, evaluated 8 days after inoculation
Protocol: Solvent: 49 parts by weight of N,N-dimethylacetamide Emulsifier: 1 part by weight of alkylaryl polyglycol ether To produce a suitable preparation of active compound, 1 part by weight of active compound or active compound combination is mixed with the stated amounts of solvent and emulsifier, and the concentrate is diluted with water to the desired concentration. To test for preventive activity, young plants are sprayed with the preparation of active compound or active compound combination at the stated rate of application. After the spray coating has been dried, the plants are sprayed with a spore suspension of Puccinia triticina. The plants remain for 48 hours in an incubation cabinet at approximately 20° C. and a relative atmospheric humidity of approximately 100%. The plants are placed in the greenhouse at a temperature of approximately 20° C. and a relative atmospheric humidity of approximately 80%. The test is evaluated 8 days after the inoculation. 0% means an efficacy which corresponds to that of the untreated control, while an efficacy of 100% means that no disease is observed.

[4] = tested on: Blumeria graminis fsp. hordei; assay: in vivo preventive test on Blumeria graminis (barley); details: 500 ppm of active ingredient, evaluated 7 days after inoculation
Protocol: Solvent: 49 parts by weight of N,N-dimethylacetamide Emulsifier: 1 part by weight of alkylaryl polyglycol ether To produce a suitable preparation of active compound, 1 part by weight of active compound or active compound combination is mixed with the stated amounts of solvent and emulsifier, and the concentrate is diluted with water to the desired concentration. To test for preventive activity, young plants are sprayed with the preparation of active compound or active compound combination at the stated rate of application. After the spray coating has been dried, the plants are dusted with spores of Blumeria graminis fsp. hordei. The plants are placed in the greenhouse at a temperature of approximately 18° C. and a relative atmospheric humidity of approximately 80% to promote the development of mildew pustules. The test is evaluated 7 days after the inoculation. 0% means an efficacy which corresponds to that of the untreated control, while an efficacy of 100% means that no disease is observed.

[5] = tested on: Uromyces appendiculatus; assay: in vivo preventive test on Uromyces appendiculatus (beans); details: 100 ppm of active ingredient, evaluated 10 days after inoculation
Protocol: Solvent: 24.5 parts by weight of acetone • 24.5 parts by weight of N,N-dimethylacetamide Emulsifier: 1 part by weight of alkylaryl polyglycol ether To produce a suitable preparation of active compound, 1 part by weight of active compound is mixed with the stated amounts of solvent and emulsifier, and the concentrate is diluted with water to the desired concentration. To test for preventive activity, young plants are sprayed with the preparation of active compound at the stated rate of application. After the spray coating has dried on, the plants are inoculated with an aqueous spore suspension of the causal agent of bean rust (Uromyces appendiculatus) and then remain for 1 day in an incubation cabinet at approximately 20° C. and a relative atmospheric humidity of 100%. The plants are then placed in a greenhouse at approximately 21° C. and a relative atmospheric humidity of approximately 90%. The test is evaluated 10 days after the inoculation. 0% means an efficacy which corresponds to that of the untreated control, while an efficacy of 100% means that no disease is observed.

Structure (SMILES)	Efficacy [1] [%]	Efficacy [2] [%]	Efficacy [3] [%]	Efficacy [4] [%]	Efficacy [5] [%]
CC(c1cc(Cl)sc1Cl)N(C(=O)c1c(C(F)F)nn(C)c1F)C1CC1 (centres unmarked) [Example 128]	100	100	100	100	100
Cn1nc(C(F)F)c(C(=S)N(Cc2cccc3ccsc23)C2CC2)c1F [Example 95]	86		83	100	90
CC(c1cccc2ccsc12)N(C(=O)c1c(C(F)F)nn(C)c1F)C1CC1 (centres unmarked) [Example 91]	71		100	94	
CC(c1cc2ccccc2s1)N(C(=O)c1c(C(F)F)nn(C)c1F)C1CC1 (racemic) [Example 80]	93	100	100	86	
CC(c1cc2ccccc2o1)N(C(=O)c1c(C(F)F)nn(C)c1F)C1CC1 (racemic) [Example 70]	100	95		80	100
Cc1sc(-c2ccccc2)cc1C(C)N(C(=O)c1c(C(F)F)nn(C)c1F)C1CC1 (centres unmarked) [Example 147]	92	100		70	83
CC(C)c1nn(-c2ccccc2)c(Cl)c1CN(C(=O)c1c(C(F)F)nn(C)c1F)C1CC1 [Example 169]	83	100	100	100	100
